From publication doi:10.1101/2024.08.13.607785v1 (biorxiv, 2024) come the findings set out here.

Molecules are shown by their SMILES. Read-outs that look alike come from different tables or passages of the source.

Holding throughout (experiment): biochemical
Holding throughout (design): species or system human cell line lysate

The target of assay [1] is RAC-gamma serine/threonine-protein kinase ; AKT3 ; Q9Y243 (Homo sapiens, UniProt Q9Y243).
In assay [2] the target is Serine/threonine-protein kinase PLK4 ; PLK4 ; O00444 (Homo sapiens, UniProt O00444).
For assay [3], the target named is Calcium/calmodulin-dependent protein kinase type II subunit beta ; CAMK2B ; Q13554 (Homo sapiens, UniProt Q13554).
Assay [4] deals with Isoform 4 of LIM domain kinase 1 ; LIMK1 ; P53667-4 (Homo sapiens, UniProt P53667).
The target in assay [5] is AP2-associated protein kinase 1 ; AAK1 ; Q2M2I8 (Homo sapiens, UniProt Q2M2I8).
For assay [6], the target named is Casein kinase I isoform epsilon ; CSNK1E ; P49674 (Homo sapiens, UniProt P49674).
Assay [7] concerns the target Serine/threonine-protein kinase MRCK alpha ; CDC42BPA ; Q5VT25 (Homo sapiens, UniProt Q5VT25).
The target of assay [8] is Inhibitor of nuclear factor kappa-B kinase subunit epsilon ; IKBKE ; Q14164 (Homo sapiens, UniProt Q14164).
The target of assay [9] is cAMP-dependent protein kinase catalytic subunit beta ; PRKACB ; P22694 (Homo sapiens, UniProt P22694).
For assay [10], the target named is Phosphorylase b kinase gamma catalytic chain, liver/testis isoform ; PHKG2 ; P15735 (Homo sapiens, UniProt P15735).
The target in assay [11] is Serine/threonine-protein kinase MRCK gamma ; CDC42BPG ; Q6DT37 (Homo sapiens, UniProt Q6DT37).
Assay [12] addresses Isoform 2 of Serine/threonine-protein kinase TAO2 ; TAOK2 ; Q9UL54-2 (Homo sapiens, UniProt Q9UL54).
Assay [13] has as its target EKC/KEOPS complex subunit TP53RK ; TP53RK ; Q96S44 (Homo sapiens, UniProt Q96S44).
The target of assay [14] is Mitotic checkpoint serine/threonine-protein kinase BUB1 ; BUB1 ; O43683 (Homo sapiens, UniProt O43683).
Assay [15] addresses cAMP-dependent protein kinase catalytic subunit PRKX ; PRKX ; P51817 (Homo sapiens, UniProt P51817).
Assay [16] deals with MAP/microtubule affinity-regulating kinase 3 ; MARK3 ; P27448 (Homo sapiens, UniProt P27448).
The target in assay [17] is T1, Serine/threonine-protein kinase NLK ; NLK ; Q9UBE8 (Homo sapiens, UniProt Q9UBE8).
T1 sequence (Q9UBE8 1-527): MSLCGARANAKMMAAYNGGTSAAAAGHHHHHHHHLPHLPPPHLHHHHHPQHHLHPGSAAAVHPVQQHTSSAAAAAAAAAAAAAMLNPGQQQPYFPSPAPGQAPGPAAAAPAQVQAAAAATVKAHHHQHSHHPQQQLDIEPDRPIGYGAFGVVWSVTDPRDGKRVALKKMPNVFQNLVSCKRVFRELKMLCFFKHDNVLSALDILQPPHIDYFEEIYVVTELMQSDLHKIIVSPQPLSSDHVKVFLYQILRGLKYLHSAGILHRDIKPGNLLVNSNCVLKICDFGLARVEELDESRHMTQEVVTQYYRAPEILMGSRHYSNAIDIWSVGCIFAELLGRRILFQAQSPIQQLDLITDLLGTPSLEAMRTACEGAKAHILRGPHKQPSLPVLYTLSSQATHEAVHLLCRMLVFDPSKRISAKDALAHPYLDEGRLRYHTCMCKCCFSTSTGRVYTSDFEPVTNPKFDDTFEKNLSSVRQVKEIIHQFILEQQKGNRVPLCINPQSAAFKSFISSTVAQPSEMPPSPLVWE

The target in assay [18] is Isoform 2 of Tyrosine-protein kinase Fyn ; FYN ; P06241-2 (Homo sapiens, UniProt P06241).
Assay [19] addresses Aurora kinase A ; AURKA ; O14965 (Homo sapiens, UniProt O14965).
Setting [20] is: read-out: BAY-1143572 (10 µM) / %Intensity relative to DMSO.
The mark [21] stands for this setting: read-out: BAY-1251152 (10 µM) / %Intensity relative to DMSO.

Serine/threonine-protein kinase PLK4 ; PLK4 ; O00444, sequence (O00444 whole entry, one chain of several): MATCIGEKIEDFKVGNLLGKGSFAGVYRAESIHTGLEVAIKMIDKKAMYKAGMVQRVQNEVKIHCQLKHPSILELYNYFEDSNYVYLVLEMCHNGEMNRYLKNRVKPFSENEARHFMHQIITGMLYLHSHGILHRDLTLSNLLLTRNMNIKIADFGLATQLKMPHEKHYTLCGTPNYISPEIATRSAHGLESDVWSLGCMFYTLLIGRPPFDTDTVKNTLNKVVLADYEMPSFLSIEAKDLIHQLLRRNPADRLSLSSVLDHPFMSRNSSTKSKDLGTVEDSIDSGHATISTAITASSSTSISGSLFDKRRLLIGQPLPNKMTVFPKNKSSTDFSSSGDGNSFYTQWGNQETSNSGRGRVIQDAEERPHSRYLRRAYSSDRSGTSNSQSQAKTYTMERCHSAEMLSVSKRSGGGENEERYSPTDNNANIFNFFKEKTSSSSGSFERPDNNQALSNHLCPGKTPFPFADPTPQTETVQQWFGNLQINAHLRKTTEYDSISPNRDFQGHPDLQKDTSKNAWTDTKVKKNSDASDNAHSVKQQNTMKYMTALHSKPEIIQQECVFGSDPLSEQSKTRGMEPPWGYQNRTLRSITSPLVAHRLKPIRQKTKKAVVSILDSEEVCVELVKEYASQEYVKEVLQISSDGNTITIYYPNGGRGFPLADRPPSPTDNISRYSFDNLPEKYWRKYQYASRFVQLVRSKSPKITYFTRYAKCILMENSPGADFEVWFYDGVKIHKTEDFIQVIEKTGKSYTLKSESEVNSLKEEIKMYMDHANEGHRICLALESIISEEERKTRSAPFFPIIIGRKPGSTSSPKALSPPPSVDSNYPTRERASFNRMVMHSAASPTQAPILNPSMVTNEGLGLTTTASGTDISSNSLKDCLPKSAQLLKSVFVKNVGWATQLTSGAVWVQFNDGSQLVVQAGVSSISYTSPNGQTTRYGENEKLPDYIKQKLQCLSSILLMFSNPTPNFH
Casein kinase I isoform epsilon ; CSNK1E ; P49674, sequence (P49674 whole entry, canonical isoform): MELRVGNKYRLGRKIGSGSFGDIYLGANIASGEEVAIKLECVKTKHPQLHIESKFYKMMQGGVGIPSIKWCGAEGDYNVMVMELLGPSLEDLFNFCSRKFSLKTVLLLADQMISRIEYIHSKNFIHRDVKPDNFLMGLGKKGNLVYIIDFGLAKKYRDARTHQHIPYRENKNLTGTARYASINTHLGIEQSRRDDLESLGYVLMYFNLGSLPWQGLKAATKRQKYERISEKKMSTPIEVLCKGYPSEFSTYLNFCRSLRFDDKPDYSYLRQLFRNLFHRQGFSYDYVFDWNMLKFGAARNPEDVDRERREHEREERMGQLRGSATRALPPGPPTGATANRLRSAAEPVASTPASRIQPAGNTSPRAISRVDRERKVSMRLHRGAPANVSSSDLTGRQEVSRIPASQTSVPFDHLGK
Isoform 2 of Tyrosine-protein kinase Fyn ; FYN ; P06241-2, sequence (P06241 whole entry, canonical isoform): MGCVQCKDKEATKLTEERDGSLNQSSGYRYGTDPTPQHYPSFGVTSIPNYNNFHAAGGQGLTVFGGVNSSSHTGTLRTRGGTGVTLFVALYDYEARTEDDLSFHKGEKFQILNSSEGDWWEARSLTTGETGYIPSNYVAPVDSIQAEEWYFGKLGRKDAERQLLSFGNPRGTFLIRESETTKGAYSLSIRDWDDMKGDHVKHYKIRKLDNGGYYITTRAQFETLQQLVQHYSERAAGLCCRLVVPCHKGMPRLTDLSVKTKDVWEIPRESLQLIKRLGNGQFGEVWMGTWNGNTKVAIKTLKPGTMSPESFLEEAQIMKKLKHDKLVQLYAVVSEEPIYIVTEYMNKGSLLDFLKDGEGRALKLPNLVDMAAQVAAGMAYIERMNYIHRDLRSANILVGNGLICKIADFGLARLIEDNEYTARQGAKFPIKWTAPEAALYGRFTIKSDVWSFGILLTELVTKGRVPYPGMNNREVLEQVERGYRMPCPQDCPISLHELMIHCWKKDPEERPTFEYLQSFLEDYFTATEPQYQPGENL
Inhibitor of nuclear factor kappa-B kinase subunit epsilon ; IKBKE ; Q14164, sequence (Q14164 whole entry, one chain of several): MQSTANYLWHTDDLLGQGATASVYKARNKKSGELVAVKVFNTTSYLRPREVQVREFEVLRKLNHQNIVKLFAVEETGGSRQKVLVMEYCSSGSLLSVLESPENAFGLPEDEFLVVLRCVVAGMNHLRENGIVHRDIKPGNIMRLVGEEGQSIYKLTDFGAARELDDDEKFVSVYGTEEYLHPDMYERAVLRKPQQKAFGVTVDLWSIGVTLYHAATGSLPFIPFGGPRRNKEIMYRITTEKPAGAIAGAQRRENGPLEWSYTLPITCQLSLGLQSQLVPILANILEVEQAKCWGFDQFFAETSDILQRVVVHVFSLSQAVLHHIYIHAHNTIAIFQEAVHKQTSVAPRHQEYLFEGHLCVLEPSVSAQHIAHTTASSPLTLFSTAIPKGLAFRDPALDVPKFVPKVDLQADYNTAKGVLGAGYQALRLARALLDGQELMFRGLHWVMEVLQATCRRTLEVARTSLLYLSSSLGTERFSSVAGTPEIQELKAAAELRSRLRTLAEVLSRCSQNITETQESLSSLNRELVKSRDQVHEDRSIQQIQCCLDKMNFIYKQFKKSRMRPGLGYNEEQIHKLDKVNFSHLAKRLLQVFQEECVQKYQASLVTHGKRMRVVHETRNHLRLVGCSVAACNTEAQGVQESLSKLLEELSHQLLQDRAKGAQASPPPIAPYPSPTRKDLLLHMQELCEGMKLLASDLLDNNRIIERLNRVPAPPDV
EKC/KEOPS complex subunit TP53RK ; TP53RK ; Q96S44, sequence (Q96S44 whole entry, one chain of several): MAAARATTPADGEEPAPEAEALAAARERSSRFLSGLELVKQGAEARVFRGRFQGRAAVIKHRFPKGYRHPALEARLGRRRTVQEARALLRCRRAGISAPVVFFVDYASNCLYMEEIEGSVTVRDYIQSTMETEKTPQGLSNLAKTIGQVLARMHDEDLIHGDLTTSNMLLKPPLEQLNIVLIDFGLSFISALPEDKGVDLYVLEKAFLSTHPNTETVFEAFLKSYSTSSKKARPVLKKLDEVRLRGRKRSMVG
MAP/microtubule affinity-regulating kinase 3 ; MARK3 ; P27448, sequence (P27448 whole entry, one chain of several): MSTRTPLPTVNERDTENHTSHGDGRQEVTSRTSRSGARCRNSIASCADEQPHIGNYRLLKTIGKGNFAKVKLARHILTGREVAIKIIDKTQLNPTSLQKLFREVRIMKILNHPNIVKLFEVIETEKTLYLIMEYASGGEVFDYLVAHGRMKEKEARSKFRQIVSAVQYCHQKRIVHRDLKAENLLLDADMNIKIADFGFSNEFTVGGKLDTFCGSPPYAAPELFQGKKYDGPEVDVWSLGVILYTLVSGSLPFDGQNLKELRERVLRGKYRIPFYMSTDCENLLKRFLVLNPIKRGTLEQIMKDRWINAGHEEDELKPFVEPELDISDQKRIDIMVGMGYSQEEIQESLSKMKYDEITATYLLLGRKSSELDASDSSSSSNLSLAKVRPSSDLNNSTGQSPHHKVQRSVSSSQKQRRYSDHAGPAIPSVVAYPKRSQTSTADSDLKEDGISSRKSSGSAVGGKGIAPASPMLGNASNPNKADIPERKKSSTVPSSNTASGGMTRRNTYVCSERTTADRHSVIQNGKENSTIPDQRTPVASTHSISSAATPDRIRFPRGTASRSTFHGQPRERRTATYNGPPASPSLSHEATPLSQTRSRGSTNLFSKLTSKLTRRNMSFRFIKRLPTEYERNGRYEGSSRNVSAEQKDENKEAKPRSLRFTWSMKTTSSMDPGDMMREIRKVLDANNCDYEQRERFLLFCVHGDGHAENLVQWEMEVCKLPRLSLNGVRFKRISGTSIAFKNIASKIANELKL
Isoform 4 of LIM domain kinase 1 ; LIMK1 ; P53667-4, sequence (P53667 whole entry, the tested form may be a part, canonical isoform): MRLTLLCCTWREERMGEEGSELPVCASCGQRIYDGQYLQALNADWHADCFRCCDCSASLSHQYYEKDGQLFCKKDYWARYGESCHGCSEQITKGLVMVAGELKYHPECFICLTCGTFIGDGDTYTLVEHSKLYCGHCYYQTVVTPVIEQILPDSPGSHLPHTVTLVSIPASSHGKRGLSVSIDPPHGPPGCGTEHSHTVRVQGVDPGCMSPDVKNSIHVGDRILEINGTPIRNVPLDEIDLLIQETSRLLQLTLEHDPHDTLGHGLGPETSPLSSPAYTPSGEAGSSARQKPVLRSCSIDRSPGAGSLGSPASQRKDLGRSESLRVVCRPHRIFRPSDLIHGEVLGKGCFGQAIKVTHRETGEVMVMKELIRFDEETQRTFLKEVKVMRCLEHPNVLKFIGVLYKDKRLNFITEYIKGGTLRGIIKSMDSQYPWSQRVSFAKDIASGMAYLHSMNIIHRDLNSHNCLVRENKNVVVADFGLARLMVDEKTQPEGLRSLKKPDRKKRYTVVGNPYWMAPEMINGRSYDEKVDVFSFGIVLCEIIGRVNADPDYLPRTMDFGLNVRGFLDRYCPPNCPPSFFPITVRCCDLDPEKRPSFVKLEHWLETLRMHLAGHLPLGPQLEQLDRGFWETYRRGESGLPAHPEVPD
Phosphorylase b kinase gamma catalytic chain, liver/testis isoform ; PHKG2 ; P15735, sequence (P15735 whole entry, canonical isoform, one chain of several): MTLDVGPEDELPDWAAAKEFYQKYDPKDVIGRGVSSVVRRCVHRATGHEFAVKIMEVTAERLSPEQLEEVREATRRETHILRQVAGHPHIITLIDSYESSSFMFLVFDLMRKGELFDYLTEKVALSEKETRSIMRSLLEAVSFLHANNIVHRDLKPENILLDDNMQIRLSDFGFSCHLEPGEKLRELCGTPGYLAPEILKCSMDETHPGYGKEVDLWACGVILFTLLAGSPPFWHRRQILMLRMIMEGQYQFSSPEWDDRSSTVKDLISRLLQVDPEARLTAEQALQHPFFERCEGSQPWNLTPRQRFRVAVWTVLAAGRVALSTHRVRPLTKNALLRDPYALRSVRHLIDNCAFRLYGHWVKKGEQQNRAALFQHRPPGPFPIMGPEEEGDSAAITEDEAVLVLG

Consider `COc1cc(F)ccc1-c1ncnc(Nc2cccc(C[S@](C)(=N)=O)c2)n1` [BAY-1143572], for which the remaining activity at 10 µM in assay [1] (setting [20]) was found to be 125%; in assay [2] (setting [20]) it was 104%; in assay [3] (setting [20]) it was 105%; in assay [4] (setting [20]) it was 79%; in assay [5] (setting [20]), 80.2%; in [6] (setting [20]), 111%. For the same compound, the remaining activity at 10 µM in assay [7] (setting [20]) was found to be 97.1%; in assay [8] (setting [20]) it was 110%; in [9] (setting [20]) it was 111%; in assay [10] (setting [20]) it was 107%; in [11] (setting [20]), 102%; in assay [12] (setting [20]), 95.8%. Also, the remaining activity at 10 µM is 122% in assay [13] (setting [20]); 109% in assay [14] (setting [20]); 152% in [15] (setting [20]); 106% in [16] (setting [20]); 103% in assay [17] (setting [20]); 106% in assay [18] (setting [20]). Also, the remaining activity at 10 µM in assay [19] (setting [20]) amounted to 112%.

Regarding `COc1cc(F)ccc1-c1cc(Nc2cc(CS(C)(=N)=O)ccn2)ncc1F` (centres unmarked) [BAY-1251152], the remaining activity at 10 µM came to 127% in assay [1] (setting [21]); 109% in [2] (setting [21]); 98.2% in assay [3] (setting [21]); 106% in [4] (setting [21]); 87.9% in assay [5] (setting [21]); 101% in assay [6] (setting [21]). The remaining activity at 10 µM worked out at 107% in [7] (setting [21]); 112% in [8] (setting [21]); 105% in assay [9] (setting [21]); 100% in assay [10] (setting [21]); 103% in [11] (setting [21]); 76.6% in assay [12] (setting [21]). The remaining activity at 10 µM in assay [13] (setting [21]) stood at 118%; in assay [14] (setting [21]), 106%; in assay [15] (setting [21]) it was 140%; in assay [16] (setting [21]), 100%; in assay [17] (setting [21]), 115%; in assay [18] (setting [21]), 108%. The remaining activity at 10 µM in assay [19] (setting [21]) worked out at 98.6%.
